Series [1] in a line: Membrane permeability assay, Caco-2 TC7 monolayers, apical-to-basolateral (Cerep). As to conditions: human. (In general: Caco-2 cells form a polarised layer with tight junctions and transporters.)
A further series has as its target CYP2C9 (Homo sapiens (Human), UniProt P11712). Nature of the series: Cytochrome P450 CYP2C9 inhibition in human liver microsomes (tolbutamide). As to conditions: percent remaining CYP activity, 10 uM test compound, 15 minutes. (Liver microsomes are vesicles of endoplasmic reticulum, rich in cytochrome P450 enzymes.)
A further series has as its target CYP2C19 (Homo sapiens (Human), UniProt P33261). Nature of the series: Cytochrome P450 CYP2C19 inhibition in human liver microsomes (omeprazole). The conditions noted are these: percent remaining CYP activity, 10 uM test compound, 15 minutes.
Another series addresses CYP3A4 (Homo sapiens (Human), UniProt P08684). Nature of the series: Cytochrome P450 CYP3A4 inhibition in human liver microsomes (midazolam). As to conditions: percent remaining CYP activity, 10 uM test compound, 20 minutes.
In the next series the test system is CYP1A. Nature of the series: Cytochrome P450 CYP1A inhibition in human liver microsomes (ethoxyresorufin). It counts as in vitro ADME. The conditions noted are these: percent remaining CYP activity, 10 uM test compound, 15 minutes. As to the method: Inhibition of cytochrome P450 oxidase isozymes CYP1A, CYP2C9, CYP2C19, CYP2D6 and CYP3A4 by synthetic peptide amide compounds of the invention was determined according to the following methods performed by Cerep (Seattle, Wash.):
In the cytochrome P450 CYP1A assay, human liver microsomes (0.2 mg/ml protein) were incubated for 15 minutes at 37° C. with 10 uM test compound, 1 uM ethoxyresorufin, 1.3 mM NADP, 3.3 mM glucose-6-phosphate and 0.4 U/ml glucose-6-phosphate dehydrogenase. In the absence of test compound, the ethoxyresorufin added as substrate is oxidized to resorufin, and in the presence of an inhibitor of the CYP isozyme, the amount of resorufin produced is reduced. Furafylline was used as a reference inhibitor.
In each assay, the percent inhibition of the cytochrome P450 CYP P450 isozyme was determined as one hundred times the ratio of (1—the amount of product in the sample in the presence of the test compound) divided by the amount of product in the sample containing untreated isozyme.

The target of another series is CYP2D6 (Homo sapiens (Human), UniProt P10635). Nature of the series: Cytochrome P450 CYP2D6 inhibition in human liver microsomes (dextromethorphan). As to conditions: percent remaining CYP activity, 10 uM test compound, 15 minutes.
Series [2] relates to capsaicin-induced ocular pain. Nature of the series: Capsaicin-induced ocular pain, palpebral opening in rabbits. Format: in vivo, albino New Zealand strain rabbits. As to conditions: 10-30 min. post capsaicin.
Series [3] concerns acetic acid-induced writhing in mice. Nature of the series: Acetic acid-induced writhing assay in mice. Format: in vivo, ICR mice. As to conditions: ICR mice, administered subcutaneously. As to the method: 12: 525-562; Ramabadran and Bansinath (1986) Pharm. Res. 3: 263-270]. Intraperitoneal administration of dilute acetic acid solution causes a writhing behavior in mice. A writhe is defined as a contraction of the abdominal muscles accompanied by an extension of the forelimbs and elongation of the body. The number of writhes observed in the presence and absence of test compounds is counted to determine the analgesic activity of the compounds.
Each day a writhing assay was performed, a vehicle control group of mice (n=6-8) that were treated identically to the test group (except that test compound was omitted from the injection dose) was always included and the average total number of writhes in this group used as the absolute reference point defining 0% decrease in pain perception for all other mice receiving a test compound on that day. Specifically, the total number of writhes of each mouse receiving the test compound was converted to % decrease in pain perception according to the following equation:
[formula] Where Wv is the mean number of writhes in vehicle-treated group and Wc is the number of writhes in compound-treated mouse.
Male ICR mice, 23-37 grams in weight, were weighed and placed in individual observation chambers (usually a 4000 ml glass beaker) with a fine layer of SANI-CHIPS rodent bedding at the bottom. […] After administration of the compound or vehicle control, mice were returned to their individual observation chambers awaiting the intraperitoneal administration of acetic acid solution. […] and acetic acid injection, a dose corresponding to 10 ml/kg of a 0.6% (v/v) acetic acid solution was then injected into the right lower quadrant of the abdomen. Immediately after the injection, the mouse was returned to its observation chamber and the recording of the number of writhes begun immediately. The number of writhes was counted over a 15-min period starting from the time of acetic acid injection, the data being collected over three separate 5 minute time periods (0-5 min, 5-10 min, and 10-15 min).
The data were reported as ED50, and Hill coefficient. […] The Hill coefficient is expressed as the arithmetic mean±sem calculated from the values obtained from the animals.
For dose-response analysis, raw data were converted to % maximum possible effect (% MPE) using the formula: % MPE=((test score−vehicle-treated score)/(0−vehicle-treated score))*100. Raw data were analyzed using a one-way ANOVA followed by Dunnett's post-tests. […] Compounds were administered by the intravenous route.

Series [4] in a line: Inhibition of locomotion in mice (locomotion reduction assay, sedation). More on the design: species or system ICR mice. As to conditions: mouse, in vivo, sc, administered subcutaneously, sedative effect. On the procedure:
To determine the potential sedative effect of test compounds, the extent of locomotion reduction after the administration of the test compound or vehicle control can be determined and compared with a specialized apparatus designed for this purpose (Opto-Varimex Activity Meter). At the start of each experiment, each mouse was weighed and examined to determine good health. […] The subcutaneous injection was performed in the back of the neck of the mouse, pinched in a “tent” to allow proper access for the syringe needle. After injection, each animal was placed individually in Plexiglas boxes (43 cm×43 cm) inside the Opto-Varimex Activity Meter apparatus. Before the animal was placed in the apparatus, a thin layer of SANI-CHIPS rodent bedding was placed on the bottom of the Plexiglas box to provide a comfortable environment. Each Opto-Varimex Activity Meter apparatus was then turned on and data acquisition begun by the ATM3 Auto-Track System. The data were processed and results expressed in the same way as described for the writhing assay data in Example 47.
Inhibition of acetic acid-induced writhing by a compound is an indication of an analgesic effect (also called an antinociceptive effect). Similarly, a reduction in locomotion caused by administration of the compound can be used as a measure of its general sedative effect.

Series [5] in a line: Pharmacokinetics in ICR mice after subcutaneous injection. The conditions noted are these: mouse, in vivo, sc, 1 mg/kg, time for plasma concentration to fall by 50% after maximum. As to the method: A single bolus of the synthetic peptide amide compound was administered by subcutaneous injection to ICR mice (n=6, males, body wt 23-37 g, Charles River, Wilmington, Mass.) and plasma samples taken at 5, 10, 15, 20, 30 60, 90, 120, and 180 minutes post-injection.
Quantitation was performed against a calibration curve of the analyte in blank Cynomolgus monkey plasma using the same internal standard. Data analysis and the extraction of pharmacokinetic parameters were performed with the program PK Solutions 2.0 (Summit Research Services, Ashland, Ohio, USA).

Series [6] in a line: Pharmacokinetics in cynomolgus monkeys after intravenous bolus. The conditions noted are these: cynomolgus monkey, in vivo.
In series [7] the target is mouse kappa opioid receptor (mKOR) (Mus musculus (Mouse), UniProt P33534). Nature of the series: cell-based. The conditions noted are these: read-out: mKOR Efficacy(%).
The target in series [8] is human kappa opioid receptor (hKOR) (Homo sapiens (Human), UniProt P41145). Nature of the series: cell-based. The conditions noted are these: HEK293, read-out: hKOR Efficacy(%).
Another series can be described thus: in vitro. As to conditions: human, Caco-2.

Square brackets hold non-standard residues; d marks the D form. Peptide text beside a SMILES is read from it. * marks the point of attachment. Piperidinyl(4-(1-Pro-OH)) = O=C(O)[C@@H]1CCCN1C1CCN(*)CC1; dDab = NCC[C@@H](N)C(=O)O Bounds are passed on as bounds.

What is called Papp A→B is how fast a substance crosses the layer from the apical side. Low readings indicate poor permeation, high ones ready permeation. The compound `CN(C(=O)C(c1ccccc1)c1ccccc1)[C@H](CN1CC[C@H](O)C1)c1ccccc1` [Asimadoline, asimadoline, reference compound] gave a Papp A→B at 60 min, 10 uM in series [1] of 375 nm/s.

Consider `CNCCCC[C@@H](NC(=O)[C@@H](CC(C)C)NC(=O)[C@@H](Cc1ccccc1)NC(=O)[C@H](N)Cc1ccccc1)C(=O)N1CCCN(C(=N)N)CC1` [Compound (1), D-Phe-D-Phe-D-Leu-(ε-Me)D-Lys-[4-Amidinohomopiperazine amide]], for which, at CYP2C9, the “Percent Activity of CYP2C9” value turned out to be 93.2%. The “Percent Activity of CYP2C19” value at CYP2C19 is 98.5%. Also, the “Percent Activity of CYP3A4” value at CYP3A4 is 92.5%. The “Percent Activity of CYP1A” value in the series with CYP1A came to 89.8%. In series [1], the Papp A→B at 60 min, 10 uM is < 1 nm/s. Moreover, at CYP2D6, the “Percent Activity of CYP2D6” value came out at 96.0%.

What is called ED50 is the dose that gives a 50% effect, or the effect in half of the subjects. For the compound `CNCCCC[C@@H](NC(=O)[C@@H](CC(C)C)NC(=O)[C@@H](Cc1ccccc1)NC(=O)[C@H](N)Cc1ccccc1)C(=O)N1CCC(N)(C(=O)O)CC1` [Compound (3), D-Phe-D-Phe-D-Leu-(ε-Me)D-Lys-[ω(4-aminopiperidine-4-carboxylic acid)]-OH], the “Percent Activity of CYP2C9” value at CYP2C9 was 97.4%. The “Mean palpebral opening (% Control)” value in series [2] (Table VII, 10 mg/ml, five animals) was found to be 76.0 % Control. Also, the “Percent Activity of CYP2C19” value on CYP2C19 is given as 103.2%. Further, the “Percent Activity of CYP3A4” value on CYP3A4 came to 94.3%. Besides, the “Percent Activity of CYP1A” value with CYP1A is given as 93.1%. Besides, the “ED50 in the acetic acid-induced writhing assay” value in series [3] worked out at 0.052 mg/kg. Also, in series [1], the Papp A→B at 60 min, 10 uM was < 0.2 nm/s. In [4], it took a dose of 2.69 mg/kg to reach the 50% effect level (ED50). Besides, the “Percent Activity of CYP2D6” value on CYP2D6 amounted to 99.5%.

For orientation: half-life means the time needed for the level to fall by half in the phase considered. Higher therefore signals slow loss. Take `CNCCCC[C@@H](NC(=O)[C@@H](CC(C)C)NC(=O)[C@@H](Cc1ccccc1)NC(=O)[C@H](N)Cc1ccccc1)C(=O)N1CCC(N2CCC[C@H]2C(=O)O)CC1` [Compound (6), D-Phe-D-Phe-D-Leu-(ε-Me)D-Lys-[N-(4-piperidinyl)-L-proline]-OH]: at CYP2C9, the “Percent Activity of CYP2C9” value is recorded as 92.1%. Besides, the values for the half-life in [5] and in [6] were 22 min and 58.6 min, respectively. On CYP2C19, the “Percent Activity of CYP2C19” value is reported as 97.2%. At CYP3A4, the “Percent Activity of CYP3A4” value stood at 93.6%. For the same compound, the “Percent Activity of CYP1A” value with CYP1A turned out to be 89.5%. In series [1], the Papp A→B at 60 min, 10 uM was < 0.2 nm/s. In series [7], the Emax turned out to be 89%. Further, the “Percent Activity of CYP2D6” value at CYP2D6 worked out at 93.9%.

Consider `CC(C)C[C@@H](NC(=O)[C@@H](Cc1ccccc1)NC(=O)[C@H](N)Cc1ccccc1)C(=O)N[C@H](CCCCNC(C)C)C(=O)N1CCC(N)(C(=O)O)CC1` [Compound (9), D-Phe-D-Phe-D-Leu-(8-iPr)D-Lys-[ω(4-aminopiperidine-4-carboxylic acid)]-OH], for which the Emax in series [8] came to 100%.

For `CC(C)C[C@@H](NC(=O)[C@@H](Cc1ccccc1)NC(=O)[C@H](N)Cc1ccccc1)C(=O)N[C@H](CCN)C(=O)N1CCC(N2CCC[C@H]2C(=O)O)CC1` [Compound (12), D-Phe-D-Phe-D-Leu-D-Dbu4N-(4-piperidinyl)-L-prolinel-OH] (H-[dF][dF][dL][dDab]-{Piperidinyl(4-(1-Pro-OH))}), the Emax in series [8] is 100%.

For `COc1ccc([C@@H]2Sc3ccccc3N(CCN(C)C)C(=O)[C@@H]2OC(C)=O)cc1` [Diltiazem, diltiazem, reference compound], the “Mean palpebral opening (% Control)” value in series [2] (Table VII, 10 mM, five animals) was 74.6 % Control; in series [2] (Table VIII, 10 mM, ten animals), 77.6 % Control.

Compound `CC(CCc1ccccc1)NCC(O)c1ccc(O)c(C(N)=O)c1` (stereo not drawn) [Labetalol, labetalol] had a Papp A→B at 60 min, 10 uM in the series “in vitro” of 99 nm/s.

Consider `CN1CC[C@]23c4c5ccc(O)c4O[C@H]2[C@@H](O)C=C[C@H]3[C@H]1C5` [Morphine, morphine, reference compound], for which the “Mean palpebral opening (% Control)” value in [2] (Table VIII, 10 mg/ml, ten animals) is listed as 74.8 % Control.

As for `CC(C)NCC(O)COc1cccc2ccccc12` (stereo not drawn) [Propranolol, propranolol], in “in vitro”, the Papp A→B at 60 min, 10 uM was found to be 538 nm/s.

In the case of `CC[C@]1(O)C[C@@H]2CN(CCc3c([nH]c4ccccc34)[C@@](C(=O)OC)(c3cc4c(cc3OC)N(C)[C@H]3[C@@](O)(C(=O)OC)[C@H](OC(C)=O)[C@]5(CC)C=CCN6CC[C@]43[C@@H]65)C2)C1` [Vinblastine, vinblastine], the Papp A→B at 60 min, 10 uM in the series “in vitro” is < 2 nm/s.
